The results in this text go back to ChEMBL document CHEMBL5149980, “The Alpha Keto Amide Moiety as a Privileged Motif in Medicinal Chemistry: Current Insights and Emerging Opportunities” (J Med Chem, 2021).

Assay [1] addresses T1, Phospholipase A2, membrane associated (Homo sapiens, UniProt P14555).
T1 sequence (P14555 whole entry): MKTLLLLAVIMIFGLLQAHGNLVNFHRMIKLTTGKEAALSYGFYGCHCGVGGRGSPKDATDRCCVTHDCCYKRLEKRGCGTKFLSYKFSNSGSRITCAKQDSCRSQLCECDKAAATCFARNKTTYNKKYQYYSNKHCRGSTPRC
The experiment in a line: Inhibition of human group IIA phospholipase A2 incubated for 30 mins by automatic plate reader analysis.

Assay [2] addresses T1, Phospholipase A2, membrane associated. As to the kind of experiment: Inhibition of human group IIA phospholipase A2 preincubated with compound for 10 mins followed by enzyme addition and measured after 30 mins by PC/DOC assay.
Assay [3] has as its target Phospholipase A2 group V (Mus musculus, UniProt P97391). The experiment in a line: Inhibition of mouse group V phospholipase A2 incubated for 10 to 20 mins cells by radiometric assay.
The target in assay [4] is Group IIE secretory phospholipase A2 (Mus musculus, UniProt Q9QUL3). The experiment in a line: Inhibition of mouse group IIE phospholipase A2 incubated for 10 to 20 mins cells by radiometric assay.
Group IIE secretory phospholipase A2 (Mus musculus, UniProt Q9QUL3), sequence (Q9QUL3 whole entry): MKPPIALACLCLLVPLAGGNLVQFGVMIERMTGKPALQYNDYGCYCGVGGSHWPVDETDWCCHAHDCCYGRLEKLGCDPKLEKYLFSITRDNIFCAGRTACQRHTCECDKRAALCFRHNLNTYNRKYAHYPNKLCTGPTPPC
Assay [5] has as its target Group IIC secretory phospholipase A2 (Mus musculus, UniProt P48076). As to the kind of experiment: Inhibition of mouse group IIC phospholipase A2 incubated for 10 to 20 mins cells by radiometric assay.
The target in assay [6] is Group 10 secretory phospholipase A2 (Homo sapiens, UniProt O15496). The experiment in a line: Inhibition of human group X phospholipase A2 incubated for 10 to 20 mins cells by radiometric assay.
Group 10 secretory phospholipase A2 (Homo sapiens, UniProt O15496), sequence (O15496 whole entry): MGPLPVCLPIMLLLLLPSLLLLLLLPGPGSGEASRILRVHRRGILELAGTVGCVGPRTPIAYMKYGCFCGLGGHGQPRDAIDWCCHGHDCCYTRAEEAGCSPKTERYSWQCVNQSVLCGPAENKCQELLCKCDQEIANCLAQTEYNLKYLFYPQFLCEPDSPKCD
In assay [7] the target is Group 10 secretory phospholipase A2 (Mus musculus, UniProt Q9QXX3). As to the kind of experiment: Inhibition of mouse group X phospholipase A2 incubated for 10 to 20 mins cells by radiometric assay.
Group 10 secretory phospholipase A2 (Mus musculus, UniProt Q9QXX3), sequence (Q9QXX3 whole entry): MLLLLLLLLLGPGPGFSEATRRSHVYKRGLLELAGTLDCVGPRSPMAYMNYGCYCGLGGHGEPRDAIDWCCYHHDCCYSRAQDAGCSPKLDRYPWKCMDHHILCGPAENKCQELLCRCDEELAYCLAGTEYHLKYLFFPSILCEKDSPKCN
The target in assay [8] is Phospholipase A2 (Mus musculus, UniProt Q9Z0Y2). The experiment in a line: Inhibition of mouse group IB phospholipase A2 incubated for 10 to 20 mins cells by radiometric assay.
Phospholipase A2 (Mus musculus, UniProt Q9Z0Y2), sequence (Q9Z0Y2 whole entry): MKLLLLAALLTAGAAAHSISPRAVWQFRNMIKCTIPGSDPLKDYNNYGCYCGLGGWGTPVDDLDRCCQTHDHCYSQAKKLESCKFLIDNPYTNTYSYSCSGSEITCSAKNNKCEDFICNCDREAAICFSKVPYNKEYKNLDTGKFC
Assay [9] has as its target Group IIE secretory phospholipase A2 (Homo sapiens, UniProt Q9NZK7). The experiment in a line: Inhibition of human group IIE phospholipase A2 expressed in Escherichia coli BL21 cells incubated for 10 to 20 mins cells by radiometric assay.
The target in assay [10] is Phospholipase A2 group V (Homo sapiens, UniProt P39877). As to the kind of experiment: Inhibition of human group V phospholipase A2 expressed in Escherichia coli BL21(DE3) cells incubated for 10 to 20 mins cells by radiometric assay.
Phospholipase A2 group V (Homo sapiens, UniProt P39877), sequence (P39877 whole entry): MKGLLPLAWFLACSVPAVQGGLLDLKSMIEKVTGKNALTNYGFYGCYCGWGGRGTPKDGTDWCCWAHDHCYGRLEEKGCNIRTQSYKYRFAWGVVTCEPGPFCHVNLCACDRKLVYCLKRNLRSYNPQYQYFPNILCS
Assay [11] addresses Phospholipase A2, membrane associated (Mus musculus, UniProt P31482). The experiment in a line: Inhibition of mouse group IIA phospholipase A2 incubated for 10 to 20 mins cells by radiometric assay.
Assay [12] has as its target T1, Phospholipase A2, membrane associated. As to the kind of experiment: Inhibition of human group IIA phospholipase A2 incubated for 10 to 20 mins cells by radiometric assay.
Assay [13] concerns the target Phospholipase A2 (Homo sapiens, UniProt P04054). As to the kind of experiment: Inhibition of human group IB phospholipase A2 expressed in Escherichia coli BL21 cells incubated for 10 to 20 mins cells by radiometric assay.
Assay [14] deals with SARS-CoV-2. As to the kind of experiment: Antiviral activity against SARS-CoV-2 infected in human Calu-3 cells. The following applies: Severe acute respiratory syndrome coronavirus 2, Calu-3. Type of assay: functional, organism-based.
Assay [15] concerns Staphylococcus aureus. As to the kind of experiment: Antibacterial activity against Staphylococcus aureus assessed as bacterial growth inhibition incubated for 24 hrs by microplate reader analysis. Type of assay: functional.
Assay [16] concerns Escherichia coli. As to the kind of experiment: Inhibition of quorum sensing system in Escherichia coli MT102 assessed as GFP level incubated for 22 hrs at 250 uM by microplate titre analysis relative to control. The class given is functional.
Assay [17] deals with Pseudomonas aeruginosa. The experiment in a line: Inhibition of quorum sensing system in Pseudomonas aeruginosa MH602 assessed as GFP level incubated for 15 hrs at 250 uM by microplate titre analysis relative to control. The class given is functional.
Assay [18] has as its system Staphylococcus aureus. As to the kind of experiment: Antibacterial activity against Staphylococcus aureus assessed as bacterial growth inhibition by microdilution analysis. The class given is functional.
The test system of assay [19] is Pseudomonas putida. The experiment in a line: Antibacterial activity against Pseudomonas putida assessed as bacterial growth inhibition by microdilution analysis. The class given is functional.
For assay [20], the system named is Escherichia coli. As to the kind of experiment: Antibacterial activity against Escherichia coli assessed as bacterial growth inhibition by microdilution analysis. Type of assay: functional.
Assay [21] relates to Bacillus cereus. As to the kind of experiment: Antibacterial activity against Bacillus cereus assessed as bacterial growth inhibition by microdilution analysis. Type of assay: functional.
Assay [22] has as its target Translocator protein (Rattus norvegicus, UniProt P16257). The experiment in a line: Displacement of [3H]-PK11195 from rat kidney mitochondrial membrane TSPO receptor assessed as inhibition constant. Type of assay: cell membranes.
Assay [23] concerns the target Translocator protein (Rattus norvegicus) (UniProt P16257). As to the kind of experiment: Activation of TSPO in rat C6 glioma cells assessed as increase in pregnenolone incubated for 2 hrs by radioimmuno assay. The class given is cell-based. Also noted: concentration or dose not given beside the values. The conditions noted are these: filed as activator.
Assay [24] concerns the target Calpain-1 catalytic subunit (Homo sapiens, UniProt P07384). The experiment in a line: Inhibition of human Calpain I assessed as dissociation constant using Suc-Leu-Tyr-AMC as substrate preincubated for 15 mins followed by compound addition and measured after 40 mins by […].
Assay [25] addresses Cathepsin B (Homo sapiens, UniProt P07858). As to the kind of experiment: Inhibition of human Cathepsin B assessed as inhibition constant.
Assay [26] concerns the target Cathepsin K (Homo sapiens, UniProt P43235). As to the kind of experiment: Inhibition of human Cathepsin K assessed as inhibition constant.
Assay [27] addresses Dipeptidyl peptidase 1 (Homo sapiens) (UniProt P53634). As to the kind of experiment: Inhibition of human Cathepsin C assessed as inhibition constant at 10 uM relative to control.
Assay [28] deals with Cathepsin S (Homo sapiens, UniProt P25774). As to the kind of experiment: Inhibition of human Cathepsin S assessed as inhibition constant.
Cathepsin S, sequence (P25774 whole entry): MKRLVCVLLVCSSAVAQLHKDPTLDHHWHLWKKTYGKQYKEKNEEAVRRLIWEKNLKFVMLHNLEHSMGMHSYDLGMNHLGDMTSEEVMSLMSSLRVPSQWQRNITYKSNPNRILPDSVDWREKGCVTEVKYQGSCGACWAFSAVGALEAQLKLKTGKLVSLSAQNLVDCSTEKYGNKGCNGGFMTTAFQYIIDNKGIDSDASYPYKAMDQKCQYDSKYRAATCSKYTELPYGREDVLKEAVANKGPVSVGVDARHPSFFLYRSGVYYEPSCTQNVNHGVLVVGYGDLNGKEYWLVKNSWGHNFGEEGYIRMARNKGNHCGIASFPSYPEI
Assay [29] is filed under the species Homo sapiens. As to the kind of experiment: Inhibition of human Cathepsin H assessed as inhibition constant at 10 uM relative to control.
Assay [30] has as its target Procathepsin L (Homo sapiens, UniProt P07711). As to the kind of experiment: Inhibition of human Cathepsin L assessed as inhibition constant.
For assay [31], the target named is T2, Translocator protein (Homo sapiens, UniProt P30536). The experiment in a line: Displacement of [3H] PK11195 from TSPO in human U-87 MGcell membrane assessed as inhibition constant. The class given is cell membranes, U-87 MG.
T2 sequence (P30536 whole entry): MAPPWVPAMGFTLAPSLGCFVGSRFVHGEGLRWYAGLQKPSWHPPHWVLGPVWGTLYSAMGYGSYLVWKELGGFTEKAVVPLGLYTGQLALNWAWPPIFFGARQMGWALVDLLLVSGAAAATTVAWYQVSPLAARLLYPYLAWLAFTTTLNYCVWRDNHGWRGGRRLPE
Assay [32] addresses T2, Translocator protein. As to the kind of experiment: Displacement of [3H] PK11195 from TSPO (unknown origin) assessed as inhibition constant.
The test system of assay [33] is Staphylococcus aureus. The experiment in a line: Antibacterial activity against Staphylococcus aureus SA38 infected in MRC5 assessed as bacterial growth inhibition by alamar blue assay. Type of assay: functional.
Assay [34] has as its target Replicase polyprotein 1ab (Severe acute respiratory syndrome coronavirus 2, UniProt P0DTD1). The experiment in a line: Inhibition of SARS-Cov-2 Main protease.
Assay [35] is described as follows: Inhibition of SARS-CoV Main protease. Also noted: species or system Severe acute respiratory syndrome-related coronavirus.
Assay [36] can be described thus: Inhibition of MERS-CoV Main protease. Also noted: species or system Middle East respiratory syndrome-related coronavirus.
The target in assay [37] is GABA-A receptor; alpha-5/beta-3/gamma-2 (Homo sapiens) (UniProt P18507+P28472+P31644). The experiment in a line: Inhibition of alpha5beta3gamma2 GABAA receptor (unknown origin) relative to control. The class given is protein-complex assay.
For assay [38], the target named is GABA A receptor alpha-2/beta-2/gamma-2 (Homo sapiens) (UniProt P47870+P18507+P47869). As to the kind of experiment: Inhibition of alpha2beta2gamma2 GABAA receptor (unknown origin) relative to control. Type of assay: protein-complex assay.
Assay [39] concerns the target GABA-A receptor; alpha-1/beta-2/gamma-2 (Homo sapiens) (UniProt P14867+P47870+P18507). The experiment in a line: Inhibition of alpha1beta2gamma2 GABAA receptor (unknown origin) relative to control. Type of assay: protein-complex assay.

Converted amounts (≈) assume the structure as drawn.

Translocator protein (Rattus norvegicus), sequence (P16257 whole entry, looked up): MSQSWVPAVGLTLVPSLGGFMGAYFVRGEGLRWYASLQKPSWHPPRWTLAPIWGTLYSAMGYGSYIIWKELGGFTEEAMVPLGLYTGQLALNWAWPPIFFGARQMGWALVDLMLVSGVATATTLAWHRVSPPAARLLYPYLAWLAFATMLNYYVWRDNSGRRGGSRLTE
Procathepsin L, sequence (P07711 whole entry): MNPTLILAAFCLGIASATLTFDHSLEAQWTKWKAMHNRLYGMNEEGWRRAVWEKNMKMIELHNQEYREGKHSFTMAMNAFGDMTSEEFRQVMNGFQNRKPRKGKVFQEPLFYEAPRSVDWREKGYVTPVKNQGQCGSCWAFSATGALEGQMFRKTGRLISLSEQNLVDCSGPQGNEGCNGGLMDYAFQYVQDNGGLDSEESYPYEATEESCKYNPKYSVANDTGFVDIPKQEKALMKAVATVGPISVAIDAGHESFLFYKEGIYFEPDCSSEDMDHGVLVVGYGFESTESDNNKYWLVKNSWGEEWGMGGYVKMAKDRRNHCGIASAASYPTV
Translocator protein (Rattus norvegicus, UniProt P16257), sequence (P16257 whole entry, looked up): as the sequence (P16257 whole entry, looked up) above
Calpain-1 catalytic subunit, sequence (P07384 whole entry): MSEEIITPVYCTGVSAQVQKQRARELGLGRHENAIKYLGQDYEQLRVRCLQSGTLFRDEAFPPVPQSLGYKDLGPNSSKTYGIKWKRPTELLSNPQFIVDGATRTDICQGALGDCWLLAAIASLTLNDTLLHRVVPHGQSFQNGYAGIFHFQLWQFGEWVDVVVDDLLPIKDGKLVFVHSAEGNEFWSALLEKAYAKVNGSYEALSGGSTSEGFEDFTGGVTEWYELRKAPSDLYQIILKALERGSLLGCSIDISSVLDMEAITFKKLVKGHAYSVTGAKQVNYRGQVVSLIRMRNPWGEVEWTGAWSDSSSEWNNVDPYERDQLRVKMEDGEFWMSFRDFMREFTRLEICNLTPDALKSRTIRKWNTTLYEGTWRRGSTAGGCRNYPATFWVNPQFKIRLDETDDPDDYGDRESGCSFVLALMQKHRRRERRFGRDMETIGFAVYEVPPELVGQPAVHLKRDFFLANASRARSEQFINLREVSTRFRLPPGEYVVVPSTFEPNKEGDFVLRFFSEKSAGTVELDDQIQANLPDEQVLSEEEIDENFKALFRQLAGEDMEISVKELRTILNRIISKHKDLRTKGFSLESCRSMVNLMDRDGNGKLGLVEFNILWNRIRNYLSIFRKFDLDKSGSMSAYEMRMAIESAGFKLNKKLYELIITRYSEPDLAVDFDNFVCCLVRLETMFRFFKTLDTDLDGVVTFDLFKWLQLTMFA
Dipeptidyl peptidase 1 (Homo sapiens), sequence (P53634 25-134 limits assumed): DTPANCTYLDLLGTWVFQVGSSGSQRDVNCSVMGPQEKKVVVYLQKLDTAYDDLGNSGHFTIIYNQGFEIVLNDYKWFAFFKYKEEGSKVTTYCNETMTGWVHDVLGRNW
Dipeptidyl peptidase 1 (Homo sapiens), sequence (P53634 231-394 limits assumed): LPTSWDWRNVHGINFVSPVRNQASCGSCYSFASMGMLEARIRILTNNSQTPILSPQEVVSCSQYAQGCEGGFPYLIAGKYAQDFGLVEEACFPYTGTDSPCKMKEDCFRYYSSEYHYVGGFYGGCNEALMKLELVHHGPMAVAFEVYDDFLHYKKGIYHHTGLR
Dipeptidyl peptidase 1 (Homo sapiens), sequence (P53634 395-463 limits assumed): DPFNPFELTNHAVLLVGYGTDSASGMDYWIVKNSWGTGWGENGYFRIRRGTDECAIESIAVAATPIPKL
Cathepsin K, sequence (P43235 whole entry): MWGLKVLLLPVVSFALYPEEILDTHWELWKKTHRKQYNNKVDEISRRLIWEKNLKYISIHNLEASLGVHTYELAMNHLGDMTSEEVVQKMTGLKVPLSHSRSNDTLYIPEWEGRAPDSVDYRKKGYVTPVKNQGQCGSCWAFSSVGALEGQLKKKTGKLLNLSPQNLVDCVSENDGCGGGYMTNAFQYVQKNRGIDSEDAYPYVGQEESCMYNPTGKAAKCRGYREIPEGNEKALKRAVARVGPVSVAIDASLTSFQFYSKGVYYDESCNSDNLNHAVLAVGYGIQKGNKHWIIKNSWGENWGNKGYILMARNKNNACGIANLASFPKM
Group IIC secretory phospholipase A2, sequence (P48076 whole entry): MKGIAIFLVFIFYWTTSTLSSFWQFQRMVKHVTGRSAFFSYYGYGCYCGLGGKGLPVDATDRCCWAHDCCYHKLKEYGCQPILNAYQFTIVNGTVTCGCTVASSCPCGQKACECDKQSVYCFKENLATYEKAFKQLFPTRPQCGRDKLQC
Phospholipase A2 group V (Mus musculus, UniProt P97391), sequence (P97391 whole entry): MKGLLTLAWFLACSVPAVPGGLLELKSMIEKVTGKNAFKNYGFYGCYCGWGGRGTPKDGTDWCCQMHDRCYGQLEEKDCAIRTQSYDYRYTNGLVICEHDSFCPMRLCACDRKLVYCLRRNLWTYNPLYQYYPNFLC
Group IIE secretory phospholipase A2 (Homo sapiens, UniProt Q9NZK7), sequence (Q9NZK7 whole entry): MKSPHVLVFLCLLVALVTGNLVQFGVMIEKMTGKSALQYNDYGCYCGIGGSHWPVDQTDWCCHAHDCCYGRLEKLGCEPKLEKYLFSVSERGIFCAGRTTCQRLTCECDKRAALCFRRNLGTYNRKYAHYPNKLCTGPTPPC
Phospholipase A2, membrane associated (Mus musculus, UniProt P31482), sequence (P31482 whole entry): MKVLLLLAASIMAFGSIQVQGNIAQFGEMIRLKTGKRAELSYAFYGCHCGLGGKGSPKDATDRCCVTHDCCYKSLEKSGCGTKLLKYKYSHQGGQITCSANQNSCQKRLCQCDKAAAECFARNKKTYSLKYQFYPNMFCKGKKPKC
Phospholipase A2 (Homo sapiens, UniProt P04054), sequence (P04054 whole entry): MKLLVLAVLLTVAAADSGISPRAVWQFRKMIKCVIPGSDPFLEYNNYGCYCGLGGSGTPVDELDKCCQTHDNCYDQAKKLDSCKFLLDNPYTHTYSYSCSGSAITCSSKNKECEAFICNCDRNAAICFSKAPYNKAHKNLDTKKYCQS

For the compound `Cc1c(C(=O)C(N)=O)c2c(OCn3cnnn3)cccn2c1Cc1ccccc1-c1ccccc1`, the IC50 in [1] and in assay [2] was 7 nM throughout.

`Cc1c(C(=O)C(N)=O)c2c(OCC(=O)O)cccn2c1Cc1ccccc1-c1ccccc1`: the IC50 in assay [3] was determined as 10 nM; in assay [4] it was 10 nM; in assay [5], 10 nM; in [6], 100 nM; in assay [7], 100 nM; in [2], 1.4 nM. Moreover, the IC50 in assay [8] amounted to 100 nM; in [9], 10 nM; in assay [10], 10 nM; in assay [11] it was 10 nM; in [12], 10 nM; in assay [13], 100 nM.

As for `Nc1cccn([C@@H](CC2CC2)C(=O)N[C@@H](C[C@@H]2CCNC2=O)C(=O)C(=O)NCc2ccccc2)c1=O`, in assay [14], a half-maximal effect (EC50) was put at 4 µM.

`CCc1c(C(=O)C(N)=O)c2c(OCC(O)CC)cccn2c1Cc1cccc(Cl)c1` (stereo not given) registered an IC50 in [1] of 19000 nM.

In the case of `C[N+](C)(C)CCCNC(=O)C(=O)c1cc(Br)ccc1NC(=O)c1ccc2ccccc2c1.[I-]`, the MIC in assay [15] amounted to 39 µg/mL.

Regarding `CCOC(=O)CNC(=O)C(=O)c1ccccc1Nc1ccc([N+](=O)[O-])cc1[N+](=O)[O-]`, the inhibition in assay [16] was 73.6%; in assay [17], 48.7%.

Take `O=C(Nc1ccc(F)cc1)C(=O)c1ccc2c(c1)c1ccccc1n2Cc1ccc(Cl)cc1`: the MIC is over 8 µg/mL in [18], 16 µg/mL in [19], 8 µg/mL in assay [20] and 16 µg/mL in [21].

`CCCN(CCC)C(=O)C(=O)c1c(-c2ccccc2)[nH]c2ccc(C)cc12`: the Ki in assay [22] was determined as 5.5 nM. Moreover, in [23], the Activity came to 148%.

Regarding `CCc1c(CC(N)=O)c2c(OCC(=O)O)cccn2c1Cc1cccc2ccccc12`, the IC50 was 30 nM in assay [1] and 5 nM in assay [2].

On to `CCN(CC)c1ccc(/C=C/c2ccccc2C(=O)NC(Cc2ccccc2)C(=O)C(N)=O)cc1` (stereo not given), for which the Ki in assay [24] came out at 56 nM; in [25], 28 nM; in [26], 1.8 nM; in [28], 3.29 µM; in assay [30], 137 nM. Besides, the inhibition in assay [27] is 94%; in assay [29] it was 84%.

In the case of `CCCCCCN(CCCCCC)C(=O)C(=O)c1c(-c2ccc(Cl)cc2)[nH]c2ccc(Cl)cc12`, the Activity in assay [23] worked out at 166%.

In the case of `CCOC(=O)[C@@H](Cc1ccccc1)NC(=O)[C@H](CC(C)C)NC(=O)C(=O)c1c(-c2ccccc2)[nH]c2ccc(N=C=S)cc12`, the Ki in [31] came out at 108 nM.

In the case of `CC(C)C[C@H](NC(=O)C(=O)c1c(-c2ccccc2)[nH]c2ccccc12)C(=O)N[C@H](Cc1ccccc1)C(=O)O`, in [32], the Ki was found to be 202 nM.

With `CCCCCCCCCS(=O)(=O)Nc1ccc(Br)cc1C(=O)C(=O)NCCCNC(=N)N`, the MIC in assay [33] turned out to be 12 µM (≈ 6.39 µg/mL).

With `CN1C(=O)CN=C(c2ccc(Cl)cc2)c2cc(Cl)ccc21`, the Activity in assay [23] turned out to be 41%.

With `C[N+](C)(C)CCCNC(=O)C(=O)c1cc(Br)ccc1NC(=O)c1ccc2ccccc2c1.[Cl-]`, the MIC in assay [15] came to 16 µg/mL.

In assay [34], `CC(C)(C)OC(=O)Nc1cccn([C@@H](CC2CCCCC2)C(=O)N[C@@H](C[C@@H]2CCNC2=O)C(=O)C(=O)NCc2ccccc2)c1=O` displayed an IC50 of 2390 nM.

On to `CC(C)(C)OC(=O)Nc1cccn([C@@H](CC2CC2)C(=O)N[C@@H](C[C@@H]2CCNC2=O)C(=O)C(=O)NCc2ccccc2)c1=O`, for which the IC50 was 900 nM in assay [35] and 580 nM in assay [36].

Take `O=C(NCc1ccccc1)C(=O)c1c[nH]c2ccc([N+](=O)[O-])cc12`: the values for the inhibition in assay [37], in assay [38] and in assay [39] were 44%, 32% and 65%, respectively.

`CCc1c(C(=O)C(=O)NC)c2c(OCC(=O)O)cccn2c1Cc1ccccc1` came in with an IC50 in [1] of over 50000 nM.

Turning to `CCC(C)N(C)C(=O)c1cc2ccccc2c(-c2ccccc2Cl)n1` (stereo not given), the Activity in assay [23] was 48%.

Consider `CCCCN(CCCC)C(=O)C(=O)c1c(-c2ccc(Cl)cc2)[nH]c2ccc(Cl)cc12`, for which the Activity in assay [23] worked out at 147%.

`CCOC(=O)[C@@H](Cc1ccccc1)NC(=O)[C@H](CC(C)C)NC(=O)C(=O)c1c(-c2ccccc2)[nH]c2ccccc12`: the Ki in assay [32] worked out at 438 nM.
